Results on one compound are retold here after patent US20120070374A1, “Compounds for Non-Invasive Measurement of Aggregates of Amyloid Peptides” (priority 2009, published 2012).

One may read the Kd as the equilibrium constant for the complex coming apart.

The target of the experiment is fibrils of Aβ40 and Aβ42. Kind of experiment: Inhibition of N-[^3H-methyl]6-OH-BTA-1 ([^3H]PIB) binding to β-amyloid fibrils, determination of Ki. The arrangement: species or system Human. Particulars: radioligand used for Ki calculation; [L] 4 nM. As to the method:
Human Aβ40 and Aβ42 peptides (Bachem) were incubated at 0.5 mg/ml in a solution of 10 mM Na2HPO4, 1 mM EDTA (pH 7.4) at 37° C. for 48 h. The formation of fibrils was confirmed by microscopy and binding of [^3H]6-OH-BTA-1 ([^3H]PIB). Fibrils were either used immediately or aliquoted and subsequently stored at −80° C. until use. Solutions of the test substances (>95% purity according to analytical HPLC) or 6-OH-BTA-1 (>95% purity according to analytical HPLC; ABX Biochemicals, Radeberg, Germany) and N—[^3H-methyl]6-OH-BTA-1 were prepared as 1-10 mM dimethyl sulfoxide (DMSO) stocks before dilution into assay buffer. The maximum final concentration of DMSO in the assays was 1%. All assays were performed in 10 mM Na2HPO4. The incubation was performed at 25° C. for 180 min. The bound and free fractions were separated by vacuum filtration through GF/B glass filters (Whatman, Maidstone, UK) using a Perkin Elmer harvester (PerkinElmer, 96 Micro B Filtermat) followed by 6×0.2 ml washes with ice cold phosphate buffer. Filters containing the bound ligand were counted with a liquid scintillation counter (Wallac Trilux, 1450 Microbeta). […] The inhibition of [^3H]PIB binding was measured for five different concentrations of the test compound in question, performed in duplicates.

With `CNc1ccc(-c2nc3ccc(O)cc3s2)cc1` [[^3H]PIB, N-[^3H-methyl]6-OH-BTA-1], the Kd was 4.2 nM.
